{"source": "patent US20160289594A1", "about": "“USE OF CNGA2 AGONISTS FOR ENHANCING THE OLFACTORY EFFECT OF AN ODORANT” (Henkel AG & Co. KGaA, priority 2013, published 2016)", "system": "CNGA2 ion channel", "experiment": "Experiments with skatole on direct activation of the CNGA2 ion channel", "assay_type": "cell-based, human", "settings": "CNGA2 ion channel of all odor receptor cells, in addition to specific odor receptors", "data": [{"molecule": "Cc1c[nH]c2ccccc12", "note": "[skatole, 3-methylindole]", "values": [{"measurement": "Activation of the CNGA2 ion channel", "result": "directly activates"}]}]}
